In patent US10513523B2, “Imidazopyrazines and pyrazolopyrimidines and their use as AMPA receptor modulators” (Janssen Pharmaceutica NV, priority 2015, dated 2019):

Each compound was assayed against GluA1o-γ8 (GRIA1o-CACNG8 fusion construct; TARP γ8 dependent AMPA receptor) (Homo sapiens (Human), UniProt P42261+Q8WXS5) (assay: Calcium flux assay (FLIPR), inhibition of glutamate response of GluA1o-γ8 channel). Conditions: HEK293 cells stably expressing GRIA1o-CACNG8 fusion; 15 μM glutamate; pIC50 = negative log of IC50 in molar; read-out: GluR1-γ8 (pIC50) (converted).
Type: cell-based
Method in brief: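 Potency is the midpoint of a four-parameter logistic fit to control-normalized FLIPR calcium responses elicited by 15 μM glutamate. Stable HEK293 cells carried a fused GluA1o-γ8 construct and were preincubated with compound and calcium dye in pH 7.4 HEPES buffer.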

GluA1o-γ8 (GRIA1o-CACNG8 fusion construct; TARP γ8 dependent AMPA receptor), sequence (P42261 other isoform, or with tags, fused parts or gaps): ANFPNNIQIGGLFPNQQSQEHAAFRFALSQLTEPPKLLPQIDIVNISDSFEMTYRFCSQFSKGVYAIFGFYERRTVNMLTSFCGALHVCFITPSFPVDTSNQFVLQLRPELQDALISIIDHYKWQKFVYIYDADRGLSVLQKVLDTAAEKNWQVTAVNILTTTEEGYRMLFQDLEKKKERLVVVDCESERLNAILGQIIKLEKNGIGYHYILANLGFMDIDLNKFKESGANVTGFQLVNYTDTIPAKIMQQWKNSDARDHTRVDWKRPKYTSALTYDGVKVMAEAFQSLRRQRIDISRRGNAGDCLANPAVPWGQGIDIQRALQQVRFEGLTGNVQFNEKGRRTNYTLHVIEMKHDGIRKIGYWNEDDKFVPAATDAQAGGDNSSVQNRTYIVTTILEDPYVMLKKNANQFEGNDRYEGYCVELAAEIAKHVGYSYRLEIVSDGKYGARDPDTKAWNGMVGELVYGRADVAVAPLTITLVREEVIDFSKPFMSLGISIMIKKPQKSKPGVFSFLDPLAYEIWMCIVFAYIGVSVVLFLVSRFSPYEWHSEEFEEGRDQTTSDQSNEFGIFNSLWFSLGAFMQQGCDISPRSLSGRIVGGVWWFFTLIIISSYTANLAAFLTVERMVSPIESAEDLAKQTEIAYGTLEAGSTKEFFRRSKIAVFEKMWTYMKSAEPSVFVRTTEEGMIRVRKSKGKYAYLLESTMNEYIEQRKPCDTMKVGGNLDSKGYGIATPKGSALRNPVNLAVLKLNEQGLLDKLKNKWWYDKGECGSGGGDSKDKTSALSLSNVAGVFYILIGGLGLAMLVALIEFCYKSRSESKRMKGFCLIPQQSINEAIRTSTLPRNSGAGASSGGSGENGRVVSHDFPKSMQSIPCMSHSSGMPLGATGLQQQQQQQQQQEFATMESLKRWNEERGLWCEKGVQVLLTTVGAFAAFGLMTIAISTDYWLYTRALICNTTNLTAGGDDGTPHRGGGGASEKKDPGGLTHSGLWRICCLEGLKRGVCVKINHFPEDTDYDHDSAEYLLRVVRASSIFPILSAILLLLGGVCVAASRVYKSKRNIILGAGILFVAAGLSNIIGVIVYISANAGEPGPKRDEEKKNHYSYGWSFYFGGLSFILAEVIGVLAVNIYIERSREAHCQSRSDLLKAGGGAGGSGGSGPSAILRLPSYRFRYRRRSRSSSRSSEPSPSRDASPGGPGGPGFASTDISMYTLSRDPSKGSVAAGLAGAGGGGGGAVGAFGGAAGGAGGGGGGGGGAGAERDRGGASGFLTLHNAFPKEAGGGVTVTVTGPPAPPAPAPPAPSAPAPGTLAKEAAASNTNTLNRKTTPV

Structure (SMILES) | IC50 [nM]
O=c1[nH]c2ccc(-c3c(C4CC4)nc4cnc(C(F)(F)F)cn34)cc2s1 [Example 216, 6-[2-Cyclopropyl-6-(trifluoromethyl)imidazo[1,2-a]pyrazin-3-yl]-3H-1,3-benzothiazol-2-one] | 501
O=C1Cc2cc(-c3c(-c4ccccc4)nc4c(C5=CCOCC5)nccn34)ccc2N1 [Example 131, 5-(8-(3,6-Dihydro-2H-pyran-4-yl)-2-phenylimidazo[1,2-a]pyrazin-3-yl)indolin-2-one] | 7.94
Fc1ccc(-c2nc3c(N4CCOCC4)nccn3c2-c2ccc3[nH]ccc3c2)cc1 [Example 16, 4-[2-(4-Fluorophenyl)-3-(1H-indol-5-yl)imidazo[1,2-a]pyrazin-8-yl]morpholine] | 15.8
O=S1(=O)Cc2cc(-c3c(-c4ccc(F)cc4)nn4c(N5CCOCC5)nccc34)ccc2N1 [Example 178, 5-[2-(4-Fluorophenyl)-7-morpholino-pyrazolo[1,5-c]pyrimidin-3-yl]-1,3-dihydro-2,1-benzothiazole 2,2-dioxide] | 2
CC(C)(C)c1nn2cnc(C(F)(F)F)cc2c1-c1ccc2c(c1)CC(=O)N2 [Example 225, 5-[2-tert-Butyl-5-(trifluoromethyl)pyrazolo[1,5-c]pyrimidin-3-yl]indolin-2-one] | 501
O=C1Nc2ccc(-c3c(-c4ccc(F)cc4)nc4c(N5CCOCC5)nccn34)cc2CO1 [Example 124, 6-[2-(4-fluorophenyl)-8-morpholino-imidazo[1,2-a]pyrazin-3-yl]-1,4-dihydro-3,1-benzoxazin-2-one] | 7.94
Nc1nccn2c(-c3ccc4c(c3)CC(=O)N4)c(-c3ccc(F)cc3)nc12 [Example 248, 5-[8-Amino-2-(4-fluorophenyl)imidazo[1,2-a]pyrazin-3-yl]indolin-2-one] | 5010
O=c1[nH]c2ccc(-c3c(-c4ccc(F)cc4)nn4c(N5CCOCC5)nccc34)cc2o1 [Example 173, 6-[2-(4-Fluorophenyl)-7-morpholino-pyrazolo[1,5-c]pyrimidin-3-yl]-3H-1,3-benzoxazol-2-one] | 1.26
Oc1ccc(-c2c(-c3ccc(F)cc3)nc3c(N4CCC(F)(F)CC4)nccn23)cc1 [Example 28, 4-[8-(4,4-Difluoro-1-piperidyl)-2-(4-fluorophenyl)imidazo[1,2-a]pyrazin-3-yl]phenol] | 158
O=C1Cc2cc(-c3c(C4CCC4)nc4c(N5CCOCC5)nccn34)ccc2N1 [Example 90, 5-(2-Cyclobutyl-8-morpholino-imidazo[1,2-a]pyrazin-3-yl)indolin-2-one] | 200
O=C1Cc2cc(-c3c(-c4ccc(F)cc4)nc4c(N5CCC5)nccn34)ccc2N1 [Example 58, 5-[8-(Azetidin-1-yl)-2-(4-fluorophenyl)imidazo[1,2-a]pyrazin-3-yl]indolin-2-one] | 1.58
O=C1Cc2cc(-c3c(-c4ccc(F)cc4)nc4c(N5CCCC(O)C5)nccn34)ccc2N1 (centres unmarked) [Example 54, 5-[2-(4-Fluorophenyl)-8-(3-hydroxy-1-piperidyl)imidazo[1,2-a]pyrazin-3-yl]indolin-2-one] | 0.316
C[C@@H]1COCCN1c1nccn2c(-c3ccc4c(c3)CC(=O)N4)c(-c3ccc(F)cc3)nc12 [Example 44, 5-[2-(4-Fluorophenyl)-8-[(3R)-3-methylmorpholin-4-yl]imidazo[1,2-a]pyrazin-3-yl]indolin-2-one] | 7.94
O=C1Cc2cc(-c3c(-c4ccc(F)cc4)nn4c(N5CC(O)C5)nccc34)ccc2N1 [Example 179, 5-[2-(4-Fluorophenyl)-7-(3-hydroxyazetidin-1-yl)pyrazolo[1,5-c]pyrimidin-3-yl]indolin-2-one] | 6.31
O=C1Cc2cc(-c3c(-c4ccc(F)cc4)nc4c(N5CCOCC5)ncc(F)n34)ccc2N1 [Example 161, 5-(5-Fluoro-2-(4-fluorophenyl)-8-morpholinoimidazo[1,2-a]pyrazin-3-yl)indolin-2-one] | 6.31
O=C1Cc2cc(-c3c(-c4ccccc4)nc4cnccn34)ccc2N1 [Example 134, 5-(2-Phenylimidazo[1,2-a]pyrazin-3-yl)indolin-2-one] | 158
CC(C)(C)OC(=O)N1CCN(c2nccn3c(-c4ccc(O)cc4)c(-c4ccc(F)cc4)nc23)CC1 [Example 3, tert-Butyl 4-[2-(4-fluorophenyl)-3-(4-hydroxyphenyl)imidazo[1,2-a]pyrazin-8-yl]piperazine-1-carboxylate] | 631
CC(=O)N1CCN(c2nccn3c(-c4ccc5[nH]ncc5c4)c(-c4ccc(F)cc4)nc23)CC1 [Example 13, 1-[4-[2-(4-Fluorophenyl)-3-(1H-indazol-5-yl)imidazo[1,2-a]pyrazin-8-yl]piperazin-1-yl]ethanone] | 0.2
Cc1cnc(N2CCOCC2)n2nc(-c3ccccc3)c(-c3ccc4c(c3)CC(=O)N4)c12 [Example 208, 5-(4-Methyl-7-morpholino-2-phenyl-pyrazolo[1,5-c]pyrimidin-3-yl)indolin-2-one] | 0.126

Structure (SMILES) | IC50 [nM]
c1ccc(Cc2nc3c(N4CCOCC4)nccn3c2-c2ccc3[nH]ncc3c2)cc1 [Example 21, 4-[2-Benzyl-3-(1H-indazol-5-yl)imidazo[1,2-a]pyrazin-8-yl]morpholine] | 1
CC1COCCN1c1nccc2c(-c3ccc4c(c3)CC(=O)N4)c(-c3ccc(F)cc3)nn12 (centres unmarked) [Example 177, 5-[2-(4-Fluorophenyl)-7-(3-methylmorpholin-4-yl)pyrazolo[1,5-c]pyrimidin-3-yl]indolin-2-one] | 0.2
N#Cc1ccc(-c2nc3c(N4CCNC(=O)C4)nccn3c2-c2ccc3[nH]c(=O)[nH]c3c2)cc1 [Example 211, 4-[3-(2-Oxo-1,3-dihydrobenzimidazol-5-yl)-8-(3-oxopiperazin-1-yl)imidazo[1,2-a]pyrazin-2-yl]benzonitrile] | 3.98
O=C1CN(c2nccn3c(-c4ccc5[nH]ncc5c4)c(-c4ccc(F)cc4)nc23)CCN1 [Example 33, 4-[2-(4-Fluorophenyl)-3-(1H-indazol-5-yl)imidazo[1,2-a]pyrazin-8-yl]piperazin-2-one] | 0.2
Oc1ccc(-c2c(-c3ccc(F)cc3)nc3c(N4CCCCC4)nccn23)cc1 [Example 9, 4-[2-(4-Fluorophenyl)-8-(1-piperidyl)imidazo[1,2-a]pyrazin-3-yl]phenol] | 200
Cc1nccn2c(-c3ccc4c(c3)CC(=O)N4)c(-c3ccc(F)cc3)nc12 [Example 133, 5-[2-(4-Fluorophenyl)-8-methyl-imidazo[1,2-a]pyrazin-3-yl]indolin-2-one] | 251
O=C(c1ccc(F)cc1)c1nc2c(N3CCOCC3)nccn2c1-c1ccc(O)cc1 [Example 149, (4-Fluorophenyl)(3-(4-hydroxyphenyl)-8-morpholinoimidazo[1,2-a]pyrazin-2-yl)methanone] | 3.98
C[S+]([O-])c1nccn2c(-c3ccc4c(c3)CC(=O)N4)c(-c3ccc(F)cc3)nc12 (centres unmarked) [Example 128, 5-[2-(4-Fluorophenyl)-8-methylsulfinyl-imidazo[1,2-a]pyrazin-3-yl]indolin-2-one] | 631
O=C1Cc2cc(-c3c(-c4ccc(F)cc4)nc4cnccn34)ccc2N1 [Example 135, 5-(2-(4-Fluorophenyl)imidazo[1,2-a]pyrazin-3-yl)indolin-2-one] | 100
O=c1[nH]c2ccc(-c3c(-c4ccc(F)cc4)nc4c(N5CCOCC5)nccn34)cc2[nH]1 [Example 11, 5-[2-(4-Fluorophenyl)-8-morpholino-imidazo[1,2-a]pyrazin-3-yl]-1,3-dihydrobenzimidazol-2-one] | 0.398
CC(=O)N1CCN(c2nccn3c(-c4ccc5[nH]c(=O)[nH]c5c4)c(-c4ccc(F)cc4)nc23)CC1 [Example 14, 5-[8-(4-Acetylpiperazin-1-yl)-2-(4-fluorophenyl)imidazo[1,2-a]pyrazin-3-yl]-1,3-dihydrobenzimidazol-2-one] | 1.58
CC(C)(C)c1nn2c(N3CCC(O)CC3)nccc2c1-c1ccc2c(c1)CC(=O)N2 [Example 181, 5-[2-tert-Butyl-7-(4-hydroxy-1-piperidyl)pyrazolo[1,5-c]pyrimidin-3-yl]indolin-2-one] | 200
CC1(C)COCCN1c1nccn2c(-c3ccc4c(c3)CC(=O)N4)c(-c3ccc(F)cc3)nc12 [Example 50, 5-[8-(3,3-Dimethylmorpholin-4-yl)-2-(4-fluorophenyl)imidazo[1,2-a]pyrazin-3-yl]indolin-2-one] | 31.6
CN(C(=O)c1nc2c(N3CCOCC3)nccn2c1-c1ccc2[nH]c(=O)[nH]c2c1)c1ccccc1 [Example 145, N-Methyl-8-morpholino-3-(2-oxo-1,3-dihydrobenzimidazol-5-yl)-N-phenyl-imidazo[1,2-a]pyrazine-2-carboxamide] | 501
CC(C)(C)c1nn2c(N3CCOCC3)nccc2c1-c1ccc2c(c1)CC(=O)N2 [Example 182, 5-(2-tert-Butyl-7-morpholino-pyrazolo[1,5-c]pyrimidin-3-yl)indolin-2-one] | 63.1
COC1CN(c2nccn3c(-c4ccc5c(c4)CC(=O)N5)c(-c4ccccc4)nc23)C1 [Example 78, 5-[8-(3-Methoxyazetidin-1-yl)-2-phenyl-imidazo[1,2-a]pyrazin-3-yl]indolin-2-one] | 2
CC(=O)N1CCN(c2ncc(C)n3c(-c4ccc5c(c4)CC(=O)N5)c(Cc4ccccc4)nc23)CC1 [Example 114, 5-(8-(4-Acetylpiperazin-1-yl)-2-benzyl-5-methylimidazo[1,2-a]pyrazin-3-yl)indolin-2-one] | 2
N#Cc1ccc(-c2nc3c(N4CCNC(=O)C4)nccn3c2-c2ccc3c(c2)CC(=O)N3)cc1 [Example 210, 4-[3-(2-Oxoindolin-5-yl)-8-(3-oxopiperazin-1-yl)imidazo[1,2-a]pyrazin-2-yl]benzonitrile] | 20
c1ccc(-c2nn3c(N4CCOCC4)nccc3c2-c2ccc3[nH]ncc3c2)cc1 [Example 233, 4-[3-(1H-Indazol-5-yl)-2-phenyl-pyrazolo[1,5-c]pyrimidin-7-yl]morpholine] | 0.398
